Data: patent US11819488B2, “Nanosuspensions of salsalate and methods of using the same” (RHNanoPharma, priority 2018, dated 2023)

Experiments:
[1] = studies of 3 weeks or more in duration; cited from earlier work
[2] = in terms of salicylic acid equivalents; cited from earlier work
pH of salsalate in water = assay type: physicochemical
Experimental: The pH of salsalate in water was slightly below 4, so no pH adjustment was attempted. The samples were analyzed using Horiba light scattering particle size distributions (PSD). One of several acceptable formulations was selected to scale up to a higher concentration of API using high speed media milling.

[3] = Particle size analysis, Horiba light scattering; oral excipient screen (Example 1); assay type: physicochemical; conditions: unmilled aqueous suspension of 5% salsalate, FIG. 1B
Experimental: The pH of salsalate in water was slightly below 4, so no pH adjustment was attempted. The samples were analyzed using Horiba light scattering particle size distributions (PSD). One of several acceptable formulations was selected to scale up to a higher concentration of API using high speed media milling. […] Eight different aqueous nanosuspensions of salsalate, with differing surfactants or combinations of surfactants, were prepared and analyzed for particle size. The first 7 formulations were made by roller milling with a Roller-Mill RM20 (ZOZ GmbH) with YTZ-800 grinding media (Tosoh Corp.) at 192 rpm. The 8th formulation was made via high speed media milling (5000 rpm). The particle sizes of the resultant compositions were then analyzed using a Horiba light scattering particle size analyzer. The compositions and results of the particle size analyses are shown below in Table 2 and in FIGS. 2A, 2B, 3A, 3B etc. through 9A and 9B.

[4] = non-nano salsalate 3.0, 3.5, 4.0 g/d vs placebo, type two diabetes, P=0.003, FIG. 28A; cited from earlier work

O=C(Oc1ccccc1C(=O)O)c1ccccc1O [salsalate, 2-hydroxybenzoyloxy benzoic acid]
study withdrawal from the salsalate group for any reason [1]: 17-38% | salicylic acid obtained relative to an equivalent dose of aspirin, based on relative AUC values [2]: approximately 84% | pH of salsalate in water (pH of salsalate in water): below 4 | D90 particle size [3]: 435 μm | mean particle size [3]: 244 μm | median particle size [3]: 222.24 μm | HbAlc level over time, F test for the overall effect of treatment group [4]: significant
